Assay results: patent US20120115852A1, “HETEROCYCLIC COMPOUNDS AS AUTOTAXIN INHIBITORS” (Merck Patent Gesellschaft Mit Beschrankter Haftung, priority 2009, published 2012)

Molecular target: T1, recombinant autotaxin (Homo sapiens, UniProt Q13822)
T1 construct: made in house; host or cells: Hi5 insect cells (baculovirus)
Assay: Autotaxin test (enzyme test), Amplex Red fluorescence with LPC substrate
Format: biochemical
Settings: autotaxin inhibition (enzyme test); for remaining activity at 10 µM: 10 μM compound, read-out: % Control at 10 μM
Procedure, shortened: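 Purified recombinant autotaxin (baculovirus Hi5-expressed) pre-incubated with compound 30 min at 22° C, then LPC (final 75 μM) added and reacted 90 min at 37° C in Tris pH 8 buffer with CaCl2. Choline released was coupled via alkaline phosphatase, choline oxidase and peroxidase to Amplex Red; resorufin fluorescence read in kinetic mode (ex 485/em 612 nm).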

| Structure (SMILES) | remaining activity at 10 µM [%] | IC50 [nM] |
| --- | --- | --- |
| CC(C)(C)CC(=O)N1CCN2C(=O)c3cc(-c4ccc(F)cc4)ccc3NC(=O)C2C1 (centres unmarked) [Compound A130, 2-(3,3-Dimethylbutyryl)-7-(4-fluorophenyl)-1,3,4,11a-tetrahydro-2H,10H-2,4a,10-triaza-dibenzo[a,d]cycloheptene-5,11-dione] | -1 | > 1000 |
| O=C1Nc2ccc(-c3cccc(C(F)(F)F)c3)cc2C(=O)N2CCN(C(=O)c3ccccc3)C[C@H]12 [Compound B11] | 85 |  |
| O=C1Nc2ccc(-c3ccc(Cl)cc3)cc2C(=O)N2CCN(C(=O)[C@@H]3CCCN3C3CCNCC3)C[C@@H]12 [Compound A81, (S)-7-(4-Chlorophenyl)-2-((S)-1-piperidin-4-yl-pyrrolidine-2-carbonyl)-1,3,4,11a-tetrahydro-2H,10H-2,4a,10-triazadibenzo[a,d]cycloheptene-5,11-dione] | 33 |  |
| COc1ccc(-c2ccc3c(c2)C(=O)N2CCN(C(=O)CC(C)(C)C)C[C@@H]2C(=O)N3)cc1 [Compound B25] | 47 | > 1000 |
| Cn1cc(CCC(=O)N2CCN3C(=O)c4cc(-c5ccc(Cl)cc5F)ccc4NC(=O)C3C2)cn1 (centres unmarked) [Compound A95, 7-(4-Chloro-2-fluorophenyl)-2-[3-(1-methyl-1H-pyrazol-4-yl)propionyl]-1,3,4,11a-tetrahydro-2H,10H-2,4a,10-triazadibenzo[a,d]cycloheptene-5,11-dione] | 15 | > 1000 |
| Cc1ccc(-c2ccc3c(c2)C(=O)N2CCN(C(=O)CC(C)(C)C)CC2C(=O)N3)cc1C (centres unmarked) [Compound A90, 2-(3,3-Dimethylbutyryl)-7-(3,4-dimethylphenyl)-1,3,4,11a-tetrahydro-2H,10H-2,4a,10-triaza-dibenzo[a,d]cycloheptene-5,11-dione] | 24 | > 1000 |
| CC(C)(C)CC(=O)N1CCN2C(=O)c3cc(-c4cc(Cl)cc(Cl)c4)ccc3NC(=O)C2C1 (centres unmarked) [Compound A19, 7-(3,5-Dichlorophenyl)-2-(3,3-dimethylbutyryl)-1,3,4,11a-tetrahydro-2H,10H-2,4a,10-triaza-dibenzo[a,d]cycloheptene-5,11-dione] | 65 | > 1000 |
| CC(C)(C)CC(=O)N1CCN2C(=O)c3cc(-c4ccccc4F)ccc3NC(=O)[C@H]2C1 [Compound A7, (R)-2-(3,3-Dimethylbutyryl)-7-(2-fluorophenyl)-1,3,4,11a-tetrahydro-2H,10H-2,4a,10-triaza-dibenzo[a,d]cycloheptene-5,11-dione] |  | > 1000 |
| O=C1Nc2ccc(-c3ccc(Cl)cc3)cc2C(=O)N2CCN(C(=O)C3CCCN3C(=O)Nc3ccc(Cl)cc3)CC12 (centres unmarked) [Compound A111, N-(4-Chlorophenyl)-2-[7-(4-chlorophenyl)-5,11-dioxo-3,4,5,10,11,11a-hexahydro-1H-2,4a,10-triaza-dibenzo[a,d]cycloheptene-2-carbonyl]pyrrolidine-1-carboxamide] | 3 | > 1000 |
| O=C1Nc2ccc(-c3ccc(Cl)cc3)cc2C(=O)N2CCN(C(=O)c3ccccn3)CC12 (centres unmarked) [Compound A51, 7-(4-Chlorophenyl)-2-(pyridine-2-carbonyl)-1,3,4,11a-tetrahydro-2H,10H-2,4a,10-triaza-dibenzo[a,d]cycloheptene-5,11-dione] | 37 | > 1000 |
| CC(C)(C)C(=O)N1CCN2C(=O)c3cc(-c4ccc(Cl)cc4)ccc3NC(=O)C2C1 (centres unmarked) [Compound A109, 7-(4-Chlorophenyl)-2-(2,2-dimethylpropionyl)-1,3,4,11a-tetrahydro-2H,10H-2,4a,10-triaza-dibenzo[a,d]cycloheptene-5,11-dione] | -21 | > 1000 |
| O=C1Nc2ccc(-c3ccc(Cl)cc3)cc2C(=O)N2CCN(C(=O)Oc3ccccc3)CC12 (centres unmarked) [Compound A167] | 26 | > 1000 |
| O=C1Nc2ccc(-c3ccc(Cl)cc3)cc2C(=O)N2CCN(C(=O)[C@@H](O)C3CCCCC3)CC12 (stereo partly drawn) [Compound A113, 7-(4-Chlorophenyl)-2-((S)-2-cyclohexyl-2-hydroxy-acetyl)-1,3,4,11a-tetrahydro-2H,10H-2,4a,10-triazadibenzo[a,d]cycloheptene-5,11-dione] | -6 | > 1000 |
| O=C1Nc2ccc(-c3ccc(Cl)cc3F)cc2C(=O)N2CCN(C(=O)n3ccnc3)C[C@H]12 [Compound 41, (R)-7-(4-Chloro-2-fluorophenyl)-2-(imidazole-1-carbonyl)-1,3,4,11a-tetrahydro-2H,10H-2,4a,10-triazadibenzo[a,d]cycloheptene-5,11-dione] | 48 | > 1000 |
| CC(C)(C)CC(=O)N1CCN2C(=O)c3cc(-c4cccc(C(F)(F)F)c4)ccc3NC(=O)C2C1 (centres unmarked) [Compound A87, 2-(3,3-Dimethylbutyryl)-7-(3-trifluoromethylphenyl)-1,3,4,11a-tetrahydro-2H,10H-2,4a,10-triaza-dibenzo[a,d]cycloheptene-5,11-dione] | 74 | > 1000 |
| O=C1Nc2ccc(-c3ccc(Cl)cc3)cc2C(=O)N2CCN(C(=O)Nc3ccccc3)CC12 (centres unmarked) [Compound A48, N-Phenyl-7-(4-chlorophenyl)-5,11-dioxo-3,4,5,10,11,11a-hexahydro-1H-2,4a,10-triaza-dibenzo[a,d]cycloheptene-2-carboxamide] | 20 | > 1000 |
| COc1ccc(-c2ccc3c(c2)C(=O)N2CCN(C(=O)[C@@H]4CSCN4)C[C@@H]2C(=O)N3)cc1 [Compound B22] | 71 |  |
| Cn1cncc1C(=O)N1CCN2C(=O)c3cc(-c4ccc(Cl)cc4F)ccc3NC(=O)C2C1 (centres unmarked) [Compound A67, 7-(4-Chloro-2-fluorophenyl)-2-(3-methyl-3H-imidazole-4-carbonyl)-1,3,4,11a-tetrahydro-2H,10H-2,4a,10-triazadibenzo[a,d]cycloheptene-5,11-dione] | 19 | > 1000 |
| O=C1Nc2ccc(-c3ccc(Cl)cc3)cc2C(=O)N2CCN(C(=O)[C@@H]3CSCN3)C[C@H]12 [Compound A5, (R)-7-(4-Chlorophenyl)-2-((R)-thiazolidine-4-carbonyl)-1,3,4,11a-tetrahydro-2H,10H-2,4a,10-triazadibenzo[a,d]cycloheptene-5,11-dione] |  | > 1000 |
| Cn1cc(CCC(=O)N2CCN3C(=O)c4cc(-c5ccc(Cl)cc5F)ccc4NC(=O)[C@@H]3C2)cn1 [Compound A98, (S)-7-(4-Chloro-2-fIuorophenyl)-2-[3-(1-methyl-1H-pyrazol-4-yl)propionyl]-1,3,4,11a-tetrahydro-2H,10H-2,4a,10-triazadibenzo[a,d]cycloheptene-5,11-dione] | 90 | > 1000 |
| CC(C)[C@@H](O)C(=O)N1CCN2C(=O)c3cc(-c4ccc(Cl)cc4F)ccc3NC(=O)C2C1 (stereo partly drawn) [Compound A77, 7-(4-Chloro-2-fluorophenyl)-2-((R)-2-hydroxy-3-methylbutyryl)-1,3,4,11a-tetrahydro-2H,10H-2,4a,10-triazadibenzo[a,d]cycloheptene-5,11-dione] | 11 | > 1000 |
| O=C([C@@H]1CCCN1C1CCNCC1)N1CCN2C(=O)c3cc(-c4ccc(Cl)cc4F)ccc3N(CCC3CCNCC3)C(=O)[C@@H]2C1 [Compound A164] | 12 | > 1000 |
| CC(C)(C)CC(=O)N1CCN2C(=O)c3cc(-c4ccc(F)cc4F)ccc3NC(=O)C2C1 (centres unmarked) [Compound A91, 7-(2,4-Difluorophenyl)-2-(3,3-dimethylbutyryl)-1,3,4,11a-tetrahydro-2H,10H-2,4a,10-triaza-dibenzo[a,d]cycloheptene-5,11-dione] | -6 | > 1000 |
| CC(C)(C)[C@H](NC1CCNCC1)C(=O)N1CCN[C@@H](C(=O)Nc2ccc(-c3ccc(Cl)cc3F)cc2C(=O)O)C1 [Compound 47, 4′-chloro-4-({(R)-4-[(S)-3,3-dimethyl-2-(piperidin-4-ylamino)-butyryl]piperazine-2-carbonyl}amino)-2′-fluorobiphenyl-3-carboxylic acid] | 8 | 100 to 1000 |
| N[C@@H](CO)C(=O)N1CCN2C(=O)c3cc(-c4ccc(Cl)cc4F)ccc3NC(=O)[C@H]2C1 [Compound A122, (R)-2-((S)-2-Amino-3-hydroxypropionyl)-7-(4-chloro-2-fluorophenyl)-1,3,4,11a-tetrahydro-2H,10H-2,4a,10-triazadibenzo[a,d]cycloheptene-5,11-dione] | 69 |  |
| O=C1Nc2ccc(-c3ccc(Cl)cc3)cc2C(=O)N2CCN(C(=O)[C@H](O)C3CCCCC3)CC12 (stereo partly drawn) [Compound A112, 7-(4-Chlorophenyl)-2-((R)-2-cyclohexyl-2-hydroxy-acetyl)-1,3,4,11a-tetrahydro-2H,10H-2,4a,10-triazadibenzo[a,d]cycloheptene-5,11-dione] | 5 | > 1000 |
| CC(C)(C(=O)N1CCN2C(=O)c3cc(-c4ccc(Cl)cc4F)ccc3NC(=O)C2C1)c1ccccc1 (centres unmarked) [Compound A58, 7-(4-Chloro-2-fluorophenyl)-2-(2-methyl-2-phenyl-propionyl)-1,3,4,11a-tetrahydro-2H,10H-2,4a,10-triazadibenzo[a,d]cycloheptene-5,11-dione] | -27 | > 1000 |
| O=C1Nc2ccc(-c3cccs3)cc2C(=O)N2CCN(C(=O)CO)C[C@H]12 [Compound A8, (R)-2-(2-Hydroxyacetyl)-7-thiophen-2-yl-1,3,4,11a-tetrahydro-2H,10H-2,4a,10-triazadibenzo[a,d]-cycloheptene-5,11-dione] | 67 |  |
| O=C1Nc2ccc(-c3ccc(Cl)cc3)cc2C(=O)N2CCN(C(=O)C3(c4ccc(Cl)cc4)CC3)CC12 (centres unmarked) [Compound A47, 7-(4-Chlorophenyl)-2-[1-(4-chlorophenyl)-cyclopropanecarbonyl]-1,3,4,11a-tetrahydro-2H,10H-2,4a,10-triazadibenzo[a,d]cycloheptene-5,11-dione] |  | > 1000 |
